Data taken from ChEMBL document CHEMBL1121541, “Novel analogues of enkephalin: indentification of functional groups required for biological activity” (J Med Chem, 1980).

Species on record: Cavia porcellus
Test: Ability to Inhibit amplitude of the electrically stimulated guinea pig ileum by 50%; call rule not given here
Type: functional, organism-based

Structure (SMILES)	IC50
N[C@@H](Cc1ccc(O)cc1)C(=O)NCC(=O)NCC(=O)NC1CCc2ccccc21 (some centres undefined)	2600 nM

Species on record: Cavia porcellus
Test: Ability to Inhibit amplitude of the electrically stimulated guinea pig ileum by 50%; Inactive at 2.19E-4 concentration
Type: functional, organism-based

Structure (SMILES)	IC50
NCCc1ccc(O)cc1 [TYRAMINE]	Not Active

Species on record: Cavia porcellus
Test: Ability to Inhibit amplitude of the electrically stimulated guinea pig ileum by 50%; Inactive at 1.7E-6 concentration
Type: functional, organism-based

Structure (SMILES)	IC50
CC(C)C[C@@H](NC(=O)[C@@H](Cc1ccccc1)NC(=O)CNC(=O)C(C)NC(=O)[C@](C)(N)Cc1ccc(O)cc1)C(=O)O (stereo in doubt)	Not Active

Species on record: Cavia porcellus
Test: Ability to Inhibit amplitude of the electrically stimulated guinea pig ileum by 50%; Inactive at 2.71E-6
Type: functional, organism-based

Structure (SMILES)	IC50
CC(NC(=O)[C@@H](N)Cc1ccc(O)cc1)C(=O)NCC(=O)NC1Cc2ccccc2C1 (stereo in doubt)	Not Active

Species on record: Cavia porcellus
Test: Ability to Inhibit amplitude of the electrically stimulated guinea pig ileum by 50%; Inactive at 3.2E-6 concentration
Type: functional, organism-based

Structure (SMILES)	IC50
CC(C)[C@H](NC(=O)CNC(=O)[C@@H](N)Cc1ccc(O)cc1)C(=O)NC1CCc2ccccc21 (some centres undefined)	Not Active

Tested on: not listed separately
Test: Ratio of IC50 of [D-Ala2, D-Leu5]-enkephalin to that of the compound, in the guinea pig ileum assay
Type: functional

Structure (SMILES)	Ratio
C[C@@H](NC(=O)[C@@H](N)Cc1ccc(O)cc1)C(=O)NCC(=O)NC1CCc2ccccc21 (some centres undefined)	0.47

Species on record: Cavia porcellus
Test: Inhibition of contraction of electrically stimulated guinea pig ileum
Type: functional, organism-based

Structure (SMILES)	IC50
C[C@@H](NC(=O)[C@@H](N)Cc1ccc(O)cc1)C(=O)NCC(=O)OCc1ccccc1	220 nM
CN1CC[C@]23c4c5ccc(O)c4O[C@H]2[C@@H](O)C=C[C@H]3[C@H]1C5	1.6 nM
CSCC[C@H](NC(=O)[C@H](Cc1ccccc1)NC(=O)CNC(=O)[C@H](NC(=O)[C@@H](N)Cc1ccc(O)cc1)C(C)C)C(N)=O	16 nM
CC(C)[C@H](NC(=O)[C@@H](N)Cc1ccc(O)cc1)C(=O)NCC(=O)NC1CCc2ccccc21 (some centres undefined)	1400 nM
CC(C)[C@H](NC(=O)CNC(=O)[C@@H](N)Cc1ccc(O)cc1)C(=O)NC1CCc2ccccc21 (some centres undefined)	9030 nM
CCOC(=O)CC[C@H](N)C(=O)N[C@H](C)C(=O)NCC(=O)N[C@@H](Cc1ccccc1)C(=O)N[C@H](CC(C)C)C(=O)O	7330 nM
C[C@@H](NC(=O)[C@@H](N)Cc1ccc(O)cc1)C(=O)NCC(=O)NC1CCc2ccccc21 (some centres undefined)	40 nM
CC(C)[C@H](NC(=O)[C@](C)(Cc1ccccc1)NC(=O)CNC(=O)[C@@H](C)NC(=O)[C@@H](N)Cc1ccc(O)cc1)C(=O)O	125 nM
CC(NC(=O)[C@@H](N)Cc1ccc(O)cc1)C(=O)NCC(=O)NCC1CC1 (stereo in doubt)	480 nM
CC(NC(=O)[C@@H](N)Cc1ccc(O)cc1)C(=O)NCC(=O)N[C@@](C)(Cc1ccccc1)C(=O)O (stereo in doubt)	75 nM
CC(NC(=O)[C@@H](N)Cc1ccc(O)cc1)C(=O)NCC(=O)NC1Cc2ccccc2C1 (stereo in doubt)	9010 nM
CC(C)CC(NC(=O)[C@H](CC1CCCCC1)NC(=O)CNC(=O)C(C)NC(=O)[C@@H](N)Cc1ccc(O)cc1)C(=O)O (stereo in doubt)	9 nM
CC(NC(=O)[C@@H](N)Cc1ccc(O)cc1)C(=O)NCC(=O)NCc1ccccc1 (stereo in doubt)	140 nM
CC(C)C[C@@H](NC(=O)[C@](C)(Cc1ccccc1)NC(=O)CNC(=O)C(C)NC(=O)[C@@H](N)Cc1ccc(O)cc1)C(=O)O (stereo in doubt)	42 nM
CC(NC(=O)[C@@H](N)Cc1ccc(O)cc1)C(=O)NCC(=O)O (stereo in doubt)	24400 nM
CC(NC(=O)[C@@H](N)Cc1ccc(O)cc1)C(=O)NCC(=O)NCC1CCC1 (stereo in doubt)	320 nM
CC(NC(=O)[C@@H](N)Cc1ccc(O)cc1)C(=O)NCC(=O)NCCc1ccccc1 (stereo in doubt)	98 nM
CC(C)C[C@@H](NC(=O)[C@H](Cc1ccccc1)NC(=O)CNC(=O)[C@@H](C)NC(=O)[C@@H](N)Cc1ccc(O)cc1)C(=O)O [DADLE]	17 nM
